Assay results reported in patent US8592463B2, “Hedgehog pathway antagonists and therapeutic applications thereof” (Siena Biotech S.p.A., priority 2007, dated 2013).
pKd: −log10 of the molar value.

What was measured:
Smo receptor = target: T1, Smo receptor (Homo sapiens, UniProt Q99835); assay: Saturation binding of Bodipy-Cyclopamine to stable Smo-FLAG transfected cell line clone 3-5
T1 construct: expressed in transfected cells; host or cells: FlpIN293 (HEK293-derived)
Description: (§1) The interaction of compounds with the Smo receptor was tested by a displacement binding assay using fluorescent ligand for the Smo receptor (Bodipy-Cyclopamine, Toronto Research Chemical Inc, cat#B674800) as the labeled ligand to be displaced.
(§2) In order to determine the Kd (concentration of the ligand where 50% of the maximal binding is reached) and the Bmax (maximal amount of ligand which can bind specifically to the receptor in a biological preparation) of the fluorescent ligand, the Specific Binding (SB) was calculated by subtraction Non Specific Binding (NSB) from Total Binding (TB). The TB was determined by adding increasing concentration of Bodipy-Cyclopamine to the cells, while the NSB was determined by adding a mixture of increasing concentration of Bodipy-Cyclopamine with a saturating concentration of an well described antagonist (in this case, N-[3-(1H-benzimidazol-2-yl)-4-chlorophenyl]-3,5-dimethoxy-benzamide (Rubin et al. WO2003011219) at 10 μM was selected) to the cells. For each concentration of Bodipy-Cyclopamine, the SB was calculated by subtracting the value of NSB from TB. From the SB curve Bmax and Kd were calculated. […] The Ki is the concentration of non labeled ligand which inhibits 50% of the specific binding (SB) of the labeled ligand, and corrected for the effective used concentration of the labeled ligand. […]

[1] = tested on: 293FlpIN/clone E-3 mock transfected cells; assay: Saturation binding of Bodipy-Cyclopamine to stable mock transfected cell line clone E-3; set-up: species or system human
Description: as §1, §2

T1 sequence (Q99835 28-787): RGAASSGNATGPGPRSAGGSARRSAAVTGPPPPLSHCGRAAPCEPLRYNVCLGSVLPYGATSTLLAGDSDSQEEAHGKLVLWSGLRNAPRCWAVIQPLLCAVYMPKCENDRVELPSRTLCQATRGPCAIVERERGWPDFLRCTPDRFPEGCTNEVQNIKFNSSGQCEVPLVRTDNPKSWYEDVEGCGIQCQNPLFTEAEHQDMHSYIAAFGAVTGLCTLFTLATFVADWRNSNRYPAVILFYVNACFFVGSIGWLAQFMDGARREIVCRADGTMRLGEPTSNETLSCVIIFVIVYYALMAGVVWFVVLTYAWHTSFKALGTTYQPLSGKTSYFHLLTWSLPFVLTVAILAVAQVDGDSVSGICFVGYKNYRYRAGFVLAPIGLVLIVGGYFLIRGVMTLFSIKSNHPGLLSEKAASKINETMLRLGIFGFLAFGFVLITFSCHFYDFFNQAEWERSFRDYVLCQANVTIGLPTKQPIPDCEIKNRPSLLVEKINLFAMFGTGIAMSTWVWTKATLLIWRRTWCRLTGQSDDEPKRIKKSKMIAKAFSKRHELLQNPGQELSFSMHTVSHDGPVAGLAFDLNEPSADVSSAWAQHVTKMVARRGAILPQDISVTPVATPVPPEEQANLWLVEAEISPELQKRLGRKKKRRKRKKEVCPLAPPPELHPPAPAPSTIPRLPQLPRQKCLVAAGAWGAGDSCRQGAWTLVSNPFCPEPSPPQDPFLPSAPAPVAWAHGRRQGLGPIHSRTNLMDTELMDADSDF

Substance: Bodipy-Cyclopamine
- pKd (Smo receptor): 7.35
- pKd [1]: 6.94
